In patent US5753647A, “Acylamino-substituted hetrazepines” (Boehringer Ingelheim KG, priority 1991, dated 1998):

Target: T1, PAF receptor on washed human platelets (Homo sapiens, UniProt P25105)
T1 construct: endogenous in cells; host or cells: human blood platelets (thrombocytes) from healthy donors, purified by Sepharose CL-2B chromatography
Assay: [^3 H]PAF-receptor binding to vital human blood platelets
Settings: vital human thrombocytes
Protocol: [^3 H]PAF-Receptor-Bonding to Vital Human Blood Platelets
The competitive interaction of test substances (here PAF-antagonists) with the known interaction of the radioligand [^3 H]PAF to the same receptor is determined. The binding studies are carried out on vital human thrombocytes. Blood samples from healthy donors were diluted with ACD-buffer and centrifuged (15 min., 160×g). The platelet-rich plasma is purified by chromatography on Sepharose CL-2B [using HEPES-buffer, pH 7.4 at 20° C. for eluting].
Defined quantities [e.g. 800 μl] of the platelet suspension were incubated for 90 minutes at ambient temperature, i.e. mixed with: a) a 30 picomolar [^3 H]PAF-solution diluted with buffer. b) a 30 picomolar [3 H] PAF-solution which simultaneously contains a μ-molar (unlabelled) PAF-solution, c) with the 30 picomolar [^3 H]PAF-solution and the solutions of the test substances (different concentrations) d) used to determine total binding, e) used to determine non-specific binding.
The reaction was stopped by vacuum filtration. The filters with the blood platelets were mixed with scintillation liquid and the residual radioactivity measured in a counter.
The specific binding is obtained from the total binding minus the nonspecific binding. Either the IC50 values (i.e. the concentration of test substance which displaces 50% of the radioligand--in this case [^3 H] PAF--from the receptor) is determined and this is specified, or the Ki -values are calculated from this. This may be done by computer-aided calculation using an iteration process of the binding curves. IC50 and Ki-values are a measurement of the receptor affinity of the test substance. Lower values indicate a higher affinity.

T1 sequence (P25105 whole entry): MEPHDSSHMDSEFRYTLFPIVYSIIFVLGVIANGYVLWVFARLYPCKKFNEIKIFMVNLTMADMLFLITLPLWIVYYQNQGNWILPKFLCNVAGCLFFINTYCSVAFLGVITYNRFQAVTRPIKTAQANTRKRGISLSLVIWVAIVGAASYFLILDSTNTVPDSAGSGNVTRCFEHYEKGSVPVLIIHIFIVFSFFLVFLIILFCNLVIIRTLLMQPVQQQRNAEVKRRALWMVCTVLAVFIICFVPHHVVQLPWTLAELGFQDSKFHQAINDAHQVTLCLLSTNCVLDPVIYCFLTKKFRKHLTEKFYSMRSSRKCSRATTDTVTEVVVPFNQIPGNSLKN

Compared with “3-(4-Isobutylbenzoyl)-6-(2-chlorophenyl)-8,11-dimethyl-2,3,4,5-tetrahydro-4H-pyrido[4,3:4',5']thieno-[3,2-f][1,2,4]triazolo[4,3-a]1,4diazepine [Example 2]”, Cc1nnc2n1-c1sc3c(c1C(c1ccccc1Cl)=NC2C)CCN(C(=O)c1ccc(Cl)cc1)C3 (centres unmarked) [Example 1, 3-(4-Chlorobenzoyl)-6-(2-chlorophenyl)-8,11-dimethyl-2,3,4,5-tetrahydro-4H-pyrido[4,3 :4',5']thieno-[3,2-f][1,2,4]triazolo[4,3-a]-1,4-diazepine] is 1.6-fold higher in Ki: 1.8 nM for the first, 2.9 nM for the second.

For Cc1nnc2n1-c1sc3c(c1C(c1ccccc1Cl)=NC2C)CCN(C(=O)c1ccc(Cl)cc1)C3 (centres unmarked) [Example 1a], the Ki was 1.9 nM.
Going from Cc1nnc2n1-c1sc3c(c1C(c1ccccc1Cl)=NC2C)CCN(C(=O)c1ccc(Cl)cc1)C3 (centres unmarked) [Example 1b] to Cc1ccc(C(=O)N2CCc3c(sc4c3C(c3ccccc3Cl)=NC(C)c3nnc(C)n3-4)C2)cc1 (centres unmarked) [Example 20], the Ki falls from 71 nM to 22 nM (3.2-fold). The second binds more tightly here.

First: Cc1nnc2n1-c1sc3c(c1C(c1ccccc1Cl)=NC2C)CCN(C(=O)c1ccc(C(C)(C)C)cc1)C3 (centres unmarked) [Example 25]
Second: COc1ccc(C(=O)N2CCc3c(sc4c3C(c3ccccc3Cl)=NC(C)c3nnc(C)n3-4)C2)cc1 (centres unmarked) [Example 29]
The Ki of the first is 3.2-fold lower: 2.4 nM for the first, 7.8 nM for the second. The first binds more tightly here.

Going from Cc1nnc2n1-c1sc3c(c1C(c1ccccc1Cl)=NC2C)CCN(C(=O)c1ccc(C(F)(F)F)cc1)C3 (centres unmarked) [Example 67] to Cc1nnc2n1-c1sc3c(c1C(c1ccccc1Cl)=NC2C)CCN(C(=O)C(C)(C)C)C3 (centres unmarked) [Example 73], the Ki rises from 2.8 nM to 10 nM (3.6-fold).

CCc1ccc(C(=O)N2CCc3c(sc4c3C(c3ccccc3Cl)=NC(C)c3nnc(C)n3-4)C2)cc1 (centres unmarked) [Example 82] showed a Ki of 2.5 nM.

Target: T1, PAF receptor on washed human platelets
Assay: not given
Settings: as known from the prior art (EP 367 110); read-out: binding value Ki of prior art compound; cited from earlier work

For Cc1nnc2n1-c1sc3c(c1C(c1ccccc1Cl)=NC2)CCN(C(=O)C1CC1)C3 [3-cyclopropylcarbonyl-6-(2-chlorophenyl)-11-methyl-2,3,4,5-tetrahydro-4H-pyrido-[4,3:4',5']thieno[3,2-f][1,2,4]triazolo[4,3-a]-1,4-diazepine], the Ki is given as 13 nM.
